Consider four molecules from US10328077B2 (CELGENE CORPORATION, priority 2016, dated 2019).

Read-outs that look alike come from different tables or passages of the source.

The test system of experiment [1] is LXFS 573 SCLC patient-derived xenograft.
Experiment [2] relates to Kasumi-1 AML cancer cell line. As to the kind of experiment: Kasumi-1 AML cell line proliferation assay (Cell-MTS). The experiment is classed as cell-based. The conditions noted are these: Homo sapiens, 168 hours. The text has this:
Colorimetric cellular assay to assess the ability of LSD-1 small molecule inhibitors to effect the proliferation of the established AML cancer cell line Kasumi-1
This Cell-MTS assay is a 7-day plate based colorimetric assay which quantifies the amount of newly generated NADH in the presence and absence of test compound. These NADH levels are used as a proxy for the quantification of cancer cell proliferation.
The established cancer cell line Kasumi-1 with a verified p53 mutation were purchased from American Type Culture Collection (ATCC) and routinely passaged according to ATCC published protocols. For routine assay these cells were seeded at a density of 20,000 cells per 96-well. […] At the end of this compound incubation period, 80 μl of media is removed and 20 μL of CellTiter 96® AQueous Non-Radioactive Cell Proliferation Assay solution (Promega) is added. The cells are incubated until the OD490 is >0.6. IC50 values are calculated using the IDBS XLfit software package and include background subtracted OD490 values and normalization to DMSO controls.

A further experiment has as its target human LSD-1 (Homo sapiens (Human), UniProt O60341). Briefly: In vitro enzyme inhibition assay LSD-1 (TR-FRET). The experiment is classed as biochemical. The conditions noted are these: TR-FRET, H3K4me1-biotin labeled peptide. The text has this:
This assay determines the ability of a test compound to inhibit LSD-1 demethylase activity.
The enzymatic assay of LSD-1 activity is based on Time Resolved-Fluorescence Resonance Energy Transfer (TR-FRET) detection.

Experiment [3] deals with CD11b expression in THP-1 (AML) cells. Briefly: LSD-1 CD11b cellular assay (flow cytometry). To be noted: Homo sapiens, THP-1, 96 h, read-out: THP-1 IC50.
Experimental: To analyze LSD-1 inhibitor efficacy in cells, a CD11b flow cytometry assay was performed. […] LSD-1 test compounds were serially diluted in DMSO. The dilutions were added to each well accordingly to a final concentration of 0.2% DMSO. The cells were incubated at 37 degrees Celsius in 5% CO2 for 4 days. 250 μL of each well was transferred to a well in a 96 well round bottom plate. The plate was centrifuged at 1200 rpm at 4 degrees Celsius in a Beckman Coulter Alegra 6KR centrifuge for 5 minutes. The media was removed leaving the cells at the bottom of the wells. The cells were washed in 100 μL cold HBSS (Hank's Balanced Salt Solution) plus 2% BSA (Bovine Serum Albumin) solution and centrifuged at 1200 rpm at 4 degrees Celsius for 5 minutes. The wash was removed. […] The cells were centrifuged and washed two times in 100 μl HBSS plus 2% BSA. After the final spin the cells were resuspended in 100 μL HBSS plus 2% BSA containing 1 μg/mL DAPI (4′,6-diamidino-2-phenylindole). The cells were then analyzed by flow cytometry in a BD FACSAria machine. Cells were analyzed for CD11b expression. The percent of CD11b expressing cells for each inhibitor concentration was used to determine an IC50 curve for each compound analyzed.
Setting [4] is: Etoposide 24 mg/kg/day SC days 1-3 + vehicle.

For the molecule `COc1cc([C@@H]2c3cc4c(cc3[C@@H](O[C@@H]3O[C@@H]5CO[C@@H](C)O[C@H]5[C@H](O)[C@H]3O)[C@H]3COC(=O)[C@H]23)OCO4)cc(OC)c1O` [Etoposide, etoposide, reference compound], the figures for the “% TGD” value (with NCI-H1417 SCLC xenograft (24 mg/kg Etoposide SC QD x 3); in experiment [1] (setting [4])) were 92% and 50%, respectively. Further, the “T − C” value with NCI-H1417 SCLC xenograft (24 mg/kg Etoposide SC QD x 3) is 24 days; in experiment [1] (setting [4]) it was 21 days. For the same molecule, the “median TTE” value came to 50 days with NCI-H1417 SCLC xenograft (24 mg/kg Etoposide SC QD x 3), 50 days in the experiment with NCI-H1417 SCLC xenograft (etoposide monotherapy 24 mg/kg SC QD×3), 63 days in experiment [1] (setting [4]) and 63 days in experiment [1] (etoposide monotherapy 24 mg/kg SC).
On to `Cc1ccc(-c2c(-c3ccc(C#N)cc3)nc(N3CCC(N)CC3)n(C)c2=O)cn1` [Example 4, 4-[2-(4-amino-piperidin-1-yl)-1-methyl-5-(6-methyl-pyridin-3-yl)-6-oxo-1,6-dihydro-pyrimidin-4-yl]-benzonitrile], for which the 50% inhibitory concentration (IC50) is 100 to 1000 nM in experiment [2], under 100 nM against human LSD-1 and under 100 nM in experiment [3].
For the molecule `COc1ccc(-c2c(-c3ccc(C#N)cc3)nc(N3CCC(N)CC3)n(C)c2=O)cn1` [Example 3, 4-[2-(4-amino-piperidin-1-yl)-5-(6-methoxy-pyridin-3-yl)-1-methyl-6-oxo-1,6-dihydro-pyrimidin-4-yl]-benzonitrile], the IC50 (in experiment [2]; on human LSD-1; in experiment [3]) was under 100 nM throughout.
As for `COc1ccc(-c2c(-c3ccc(C#N)c(F)c3)nc(N3CCC(N)CC3)n(C)c2=O)cn1` [Example 8, 4-[2-(4-amino-piperidin-1-yl)-5-(6-methoxy-pyridin-3-yl)-1-methyl-6-oxo-1,6-dihydro-pyrimidin-4-yl]-2-fluoro-benzonitrile], the IC50 (in experiment [2]; against human LSD-1; in experiment [3]) was under 100 nM in each case.
